In ChEMBL document CHEMBL1201862, “PubChem BioAssay data set” (2004):
Calls of active or inactive are those of the source.

How the values were obtained:
[1] = Shn3 3'UTR reporter inhibitors, dose response, cell-based, Clone20 osteoblasts, firefly luciferase, cherry-picked (AID 624132); format: functional;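 also: firefly luciferase luminescence from reporter carrying the Shn3 3'UTR in osteoblasts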
[2] = reduction of Shn3 3'UTR firefly luciferase signal, dose response, Schnurri-3 inhibitor project, cell-based, Clone20 osteoblasts, cherry-pick, set 2 (AID 720490); format: functional;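 also: actives lower the luminescence signal as inhibitors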
[3] = inhibitors of control Renilla luciferase reporter, dose response, counter-screen for Shn3 3'UTR targeting project, Clone20-Shn3RL cells, dual-Glo, cherry-pick, set 2 (AID 720724); format: functional, cell-based; settings: Dual-Go Shn3RL
[4] = control 3'UTR Renilla luciferase suppression, dose response, counter-screen for Shn3 inhibitor project, cell-based, Clone20-Shn3RL, cherry-picked (AID 624133); format: functional
HEK293 = experiment: HEK293T cell cytotoxicity, dose response, cytotoxicity control, ATP luminescence, cherry-pick samples (AID 687005); format: functional, cell-based; settings: Homo sapiens;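 also: cells exposed to compound for 48 hours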
[5] = HEK293 Cytotoxicity Assay Measured in Cell-Based System Using Plate Reader - 7071-01_Inhibitor_Dose_CherryPick_Activity_Set2.; format: functional
Streptokinase A = biological target: T1, Streptokinase A (Streptococcus pyogenes serotype M1, UniProt P10520); experiment: S. pyogenes streptokinase expression inhibitors, potency, dose response, plasminogen activation absorbance, OD405 (AID 1914); format: functional, Streptococcus pyogenes M1 GAS;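 also: secreted streptokinase activity via plasminogen activation per viability signal from cell pellet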
T1 sequence (P10520 whole entry): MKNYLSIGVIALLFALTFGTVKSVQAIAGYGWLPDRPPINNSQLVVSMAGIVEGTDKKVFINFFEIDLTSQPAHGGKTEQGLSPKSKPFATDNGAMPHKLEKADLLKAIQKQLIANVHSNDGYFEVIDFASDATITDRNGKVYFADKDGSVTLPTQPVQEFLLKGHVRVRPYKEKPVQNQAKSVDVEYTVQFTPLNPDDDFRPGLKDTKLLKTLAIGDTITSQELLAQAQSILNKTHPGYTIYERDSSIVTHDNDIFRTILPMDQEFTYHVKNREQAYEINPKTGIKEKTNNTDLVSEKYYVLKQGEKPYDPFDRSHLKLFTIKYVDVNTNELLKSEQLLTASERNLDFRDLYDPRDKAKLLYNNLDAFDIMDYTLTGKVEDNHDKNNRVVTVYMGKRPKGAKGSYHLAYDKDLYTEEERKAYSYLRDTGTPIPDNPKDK

[6] = biological target: Disintegrin and metalloproteinase domain-containing protein 17 (Homo sapiens, UniProt P78536); experiment: ADAM17 protease inhibitors, dose response, counter-screen for ADAM10 exosite inhibitor project, biochemical, quenched FRET substrate (AID 743253)
Chain of Disintegrin and metalloproteinase domain-containing protein 17 (P78536 whole entry, the tested form may be a part): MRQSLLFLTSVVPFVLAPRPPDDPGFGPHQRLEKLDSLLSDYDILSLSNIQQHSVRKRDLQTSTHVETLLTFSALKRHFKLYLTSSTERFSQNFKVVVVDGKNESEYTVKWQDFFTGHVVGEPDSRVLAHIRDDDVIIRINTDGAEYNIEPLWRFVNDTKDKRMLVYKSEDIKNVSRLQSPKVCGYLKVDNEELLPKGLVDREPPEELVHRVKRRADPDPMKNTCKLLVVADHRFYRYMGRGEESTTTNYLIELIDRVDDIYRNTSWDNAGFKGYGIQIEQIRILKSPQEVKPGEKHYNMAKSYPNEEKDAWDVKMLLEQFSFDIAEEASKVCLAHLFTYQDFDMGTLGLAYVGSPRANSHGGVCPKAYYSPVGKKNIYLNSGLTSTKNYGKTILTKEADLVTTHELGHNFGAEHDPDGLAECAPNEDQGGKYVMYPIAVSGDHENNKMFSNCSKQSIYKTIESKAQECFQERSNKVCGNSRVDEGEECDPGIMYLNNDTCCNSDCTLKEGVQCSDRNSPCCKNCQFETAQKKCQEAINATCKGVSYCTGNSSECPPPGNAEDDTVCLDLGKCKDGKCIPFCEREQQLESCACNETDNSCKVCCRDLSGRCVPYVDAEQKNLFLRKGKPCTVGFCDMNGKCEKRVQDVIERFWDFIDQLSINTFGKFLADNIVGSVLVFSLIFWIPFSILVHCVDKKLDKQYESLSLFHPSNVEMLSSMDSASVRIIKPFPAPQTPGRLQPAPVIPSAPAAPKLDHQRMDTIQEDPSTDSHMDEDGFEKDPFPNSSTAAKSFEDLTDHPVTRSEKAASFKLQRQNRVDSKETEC

INS1 = experiment: beta cell apoptosis inhibitors, cytokine rescue, dose response, luminescence, retest (AID 449756); format: functional, cell-based; settings: Rattus norvegicus;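 also: cell death triggered by IL-1 beta plus TNF-alpha plus IFN-gamma mixture; protective hits raise ATP signal compared with cytokine alone wells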
Streptococcus = experiment: Group A Streptococcus viability loss, dose response, counter-screen for streptokinase expression inhibitor project, luminescence, BacTiterGlo (AID 1915); format: functional, organism-based;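 also: potency for reduction of bacterial viability or growth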
[7] = test system: Streptococcus sp. 'group A'; experiment: growth inhibition of control SK(-) GAS strain, dose response, counter-screen for streptokinase expression inhibitor project, luminescence, kanamycin, BacTiterGlo, confirmation (AID 1900); format: functional, organism-based
[8] = biological target: T2, Oxysterols receptor LXR-beta (Homo sapiens, UniProt P55055); format: functional, cell-based;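 also: Cell-based luminescence dose-response assay of agonist activity at LXR, run as a confirmatory counterscreen to a daf-12 agonist screen; HEK293 cells with Gal4-LXR fusion and GAL4-driven luciferase reporter; agonist potency from rising luciferase signal of a Gal4-LXR reporter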
T2 sequence (P55055 whole entry): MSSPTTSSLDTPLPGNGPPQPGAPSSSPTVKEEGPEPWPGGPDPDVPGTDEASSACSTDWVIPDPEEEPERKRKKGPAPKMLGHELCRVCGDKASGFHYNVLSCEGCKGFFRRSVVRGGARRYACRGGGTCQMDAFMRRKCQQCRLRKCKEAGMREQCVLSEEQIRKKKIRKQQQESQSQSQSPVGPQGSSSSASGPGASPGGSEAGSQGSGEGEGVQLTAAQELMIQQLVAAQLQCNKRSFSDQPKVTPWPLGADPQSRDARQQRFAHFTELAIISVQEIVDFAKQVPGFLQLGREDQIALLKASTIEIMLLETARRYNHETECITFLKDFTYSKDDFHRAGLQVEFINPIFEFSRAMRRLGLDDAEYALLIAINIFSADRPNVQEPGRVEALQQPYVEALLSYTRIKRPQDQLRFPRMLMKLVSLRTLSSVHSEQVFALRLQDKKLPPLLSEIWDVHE

cells [9] = experiment: cells
Fibrinogen beta chain [10] = biological target: T3, Fibrinogen beta chain (Homo sapiens, UniProt P02675); experiment: Fluorescence polarization-based biochemical high throughput dose response assay to identify inhibitors that disrupt the binding of a cyclic peptide (Tn6) to the fibrin proteolytic product D-Dimer and fragment E complex [DD(E )].
T3 sequence (P02675 whole entry, the tested form may be a part): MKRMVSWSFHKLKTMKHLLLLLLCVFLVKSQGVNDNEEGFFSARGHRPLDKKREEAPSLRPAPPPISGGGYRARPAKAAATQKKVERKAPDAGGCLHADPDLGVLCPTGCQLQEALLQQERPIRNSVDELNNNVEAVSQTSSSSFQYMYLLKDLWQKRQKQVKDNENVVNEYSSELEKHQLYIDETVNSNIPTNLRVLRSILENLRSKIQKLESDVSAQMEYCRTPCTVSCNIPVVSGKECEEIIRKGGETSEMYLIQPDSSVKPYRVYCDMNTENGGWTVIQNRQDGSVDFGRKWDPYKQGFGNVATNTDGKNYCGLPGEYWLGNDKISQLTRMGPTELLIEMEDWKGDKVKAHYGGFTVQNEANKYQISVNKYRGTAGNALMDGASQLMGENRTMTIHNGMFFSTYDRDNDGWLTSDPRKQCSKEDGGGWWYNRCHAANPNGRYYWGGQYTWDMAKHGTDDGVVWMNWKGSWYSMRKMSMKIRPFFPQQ

Fibrinogen beta chain [11] = biological target: T3, Fibrinogen beta chain; experiment: Fluorescence polarization-based biochemical high throughput dose response assay to identify inhibitors that disrupt the binding of a cyclic peptide (Tn7) to the fibrin proteolytic product D-Dimer and fragment E complex [DD(E )].
[12] = biological target: Peroxisome proliferator-activated receptor gamma/Nuclear receptor coactivator 1 (Homo sapiens, UniProt P37231); experiment: (§1) TR-FRET dose response biochemical High Throughput Screening assay for agonists of the steroid receptor coactivator 1 (SRC-1) recruitment by the peroxisome proliferator-activated receptor gamma (PPAR gamma): non-selective agonists. [Related pubchem assays (depositor defined):AID1300, AID1808, AID504735, AID631]; format: protein assay
Chain of Peroxisome proliferator-activated receptor gamma/Nuclear receptor coactivator 1 (P37231 whole entry): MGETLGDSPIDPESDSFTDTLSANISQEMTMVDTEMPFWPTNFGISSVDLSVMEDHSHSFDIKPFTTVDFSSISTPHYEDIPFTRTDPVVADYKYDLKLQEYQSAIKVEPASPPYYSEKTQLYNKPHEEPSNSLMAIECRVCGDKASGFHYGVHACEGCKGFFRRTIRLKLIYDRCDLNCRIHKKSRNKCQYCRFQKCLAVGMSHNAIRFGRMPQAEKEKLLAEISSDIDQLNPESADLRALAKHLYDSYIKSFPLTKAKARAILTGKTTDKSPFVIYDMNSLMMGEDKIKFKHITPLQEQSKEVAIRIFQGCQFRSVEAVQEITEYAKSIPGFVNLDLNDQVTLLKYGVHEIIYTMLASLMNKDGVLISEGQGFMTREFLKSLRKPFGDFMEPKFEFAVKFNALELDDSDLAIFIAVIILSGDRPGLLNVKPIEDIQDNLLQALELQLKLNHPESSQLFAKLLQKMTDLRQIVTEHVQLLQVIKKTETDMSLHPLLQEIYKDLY
Chain of Peroxisome proliferator-activated receptor gamma/Nuclear receptor coactivator 1 (Q15788 whole entry, further chain): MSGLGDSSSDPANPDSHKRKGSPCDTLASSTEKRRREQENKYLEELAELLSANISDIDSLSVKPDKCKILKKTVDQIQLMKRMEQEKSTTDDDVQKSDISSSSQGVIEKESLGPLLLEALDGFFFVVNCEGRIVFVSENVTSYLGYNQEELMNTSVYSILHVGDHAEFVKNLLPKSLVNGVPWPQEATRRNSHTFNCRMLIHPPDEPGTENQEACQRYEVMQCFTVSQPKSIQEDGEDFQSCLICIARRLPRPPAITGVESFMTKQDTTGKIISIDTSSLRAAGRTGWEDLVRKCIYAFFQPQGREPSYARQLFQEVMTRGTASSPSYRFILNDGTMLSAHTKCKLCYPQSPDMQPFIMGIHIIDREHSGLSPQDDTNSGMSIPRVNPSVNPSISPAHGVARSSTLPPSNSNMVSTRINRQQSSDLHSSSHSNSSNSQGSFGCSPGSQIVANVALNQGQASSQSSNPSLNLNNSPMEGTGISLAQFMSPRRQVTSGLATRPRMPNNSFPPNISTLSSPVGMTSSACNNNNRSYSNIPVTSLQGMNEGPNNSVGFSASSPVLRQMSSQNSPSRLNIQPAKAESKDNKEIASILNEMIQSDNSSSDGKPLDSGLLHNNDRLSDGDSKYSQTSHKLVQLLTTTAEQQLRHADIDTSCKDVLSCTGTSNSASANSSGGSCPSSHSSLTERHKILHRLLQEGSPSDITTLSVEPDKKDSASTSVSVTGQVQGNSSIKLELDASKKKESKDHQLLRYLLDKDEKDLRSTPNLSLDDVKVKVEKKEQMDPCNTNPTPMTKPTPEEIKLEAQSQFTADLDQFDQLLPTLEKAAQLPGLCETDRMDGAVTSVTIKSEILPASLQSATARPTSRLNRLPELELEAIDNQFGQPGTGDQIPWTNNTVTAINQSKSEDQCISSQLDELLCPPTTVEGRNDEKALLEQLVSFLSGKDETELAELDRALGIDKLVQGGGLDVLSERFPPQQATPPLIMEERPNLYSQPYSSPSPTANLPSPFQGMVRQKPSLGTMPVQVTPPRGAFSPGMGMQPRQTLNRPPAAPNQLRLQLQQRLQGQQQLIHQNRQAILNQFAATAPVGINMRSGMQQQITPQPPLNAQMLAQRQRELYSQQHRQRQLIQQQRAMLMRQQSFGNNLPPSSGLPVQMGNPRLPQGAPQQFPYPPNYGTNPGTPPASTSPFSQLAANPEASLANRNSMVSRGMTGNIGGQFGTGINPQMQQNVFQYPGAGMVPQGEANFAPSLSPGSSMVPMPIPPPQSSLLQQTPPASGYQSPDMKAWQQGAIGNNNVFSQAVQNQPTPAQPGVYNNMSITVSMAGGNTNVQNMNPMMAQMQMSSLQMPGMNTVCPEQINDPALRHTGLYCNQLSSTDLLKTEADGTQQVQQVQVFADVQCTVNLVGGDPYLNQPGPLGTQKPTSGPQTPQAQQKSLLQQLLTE

[13] = biological target: T4, Polyadenylate-binding protein 1 (Homo sapiens, UniProt P11940); experiment: PABP1 MLLE–PAM2 binding inhibitor potency, dose response, biochemical, fluorescence polarization, FITC-PAM2 peptide (AID 602259); format: functional; settings: read-out: IC50_Mean
T4 sequence (P11940 whole entry): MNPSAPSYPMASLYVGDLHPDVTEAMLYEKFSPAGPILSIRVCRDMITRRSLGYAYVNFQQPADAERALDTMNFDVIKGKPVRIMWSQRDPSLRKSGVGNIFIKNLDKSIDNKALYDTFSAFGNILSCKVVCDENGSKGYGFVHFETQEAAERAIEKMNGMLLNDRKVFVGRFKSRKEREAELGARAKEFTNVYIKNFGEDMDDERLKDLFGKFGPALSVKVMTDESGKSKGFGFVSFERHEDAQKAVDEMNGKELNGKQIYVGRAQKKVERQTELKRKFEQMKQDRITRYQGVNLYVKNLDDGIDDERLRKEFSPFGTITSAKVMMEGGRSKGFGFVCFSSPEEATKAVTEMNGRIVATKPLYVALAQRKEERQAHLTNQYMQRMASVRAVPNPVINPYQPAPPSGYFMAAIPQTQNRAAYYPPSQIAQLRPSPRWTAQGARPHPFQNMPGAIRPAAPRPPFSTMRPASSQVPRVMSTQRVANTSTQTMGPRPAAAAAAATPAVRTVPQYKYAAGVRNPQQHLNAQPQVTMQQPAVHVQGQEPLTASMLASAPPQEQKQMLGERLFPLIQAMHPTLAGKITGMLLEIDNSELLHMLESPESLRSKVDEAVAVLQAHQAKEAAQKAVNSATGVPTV

[14] = biological target: Peroxisome proliferator-activated receptor gamma/Nuclear receptor coactivator 3 (Homo sapiens, UniProt P37231); experiment: as §1, with “3 (SRC-3)” for “1 (SRC-1)”, “assays: 1301 (Confirmation screen.), 1048 (Primary screen.)]” for “assays (depositor defined):AID1300, AID1808, AID504735, AID631]”; format: functional
[15] = biological target: T4, Polyadenylate-binding protein 1; experiment: PABP1 MLLE–PAM2 interaction inhibitors, dose response, miRNA deadenylation inhibitor project, biochemical, fluorescence polarization, Cy5-PAM2 peptide, secondary (AID 602260); format: functional; settings: read-out: IC50_Mean
[16] = biological target: Peroxisome proliferator-activated receptor gamma/Nuclear receptor coactivator 2 (Homo sapiens, UniProt P37231); experiment: TR-FRET dose response biochemical High Throughput Screening assay for agonists of the steroid receptor coactivator 2 (SRC-2) recruitment by the peroxisome proliferator-activated receptor gamma (PPAR gamma): non-selective agonists. [Related pubchem assays: 1297, 1032 ]; format: functional
Nonstructural protein 1 = Nonstructural protein 1 (Influenza A virus, UniProt Q194T2); format: functional, Influenza A virus (A/California/07/2009(H1N1))
Chain of Nonstructural protein 1 (Q194T2 whole entry): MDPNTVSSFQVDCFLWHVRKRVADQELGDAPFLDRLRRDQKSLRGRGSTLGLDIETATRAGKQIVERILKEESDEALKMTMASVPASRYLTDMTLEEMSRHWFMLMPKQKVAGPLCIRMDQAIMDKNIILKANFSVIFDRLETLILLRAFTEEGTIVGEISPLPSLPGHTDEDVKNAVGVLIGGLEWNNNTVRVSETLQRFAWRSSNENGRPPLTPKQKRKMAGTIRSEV

cells [17] = experiment: cells; remark: listed apart in the source
[18] = Late stage counterscreen for inhibitors of Trypanosoma brucei methionyl tRNA synthetase (MetRS): Luminescence-based cell-based high throughput dose response assay to identify compounds that are cytotoxic to Jurkat human T lymphocyte cells.; format: functional
[19] = Counterscreen for inhibitors of Trypanosoma brucei methionyl tRNA synthetase (MetRS): Luminescence-based cell-based high throughput dose response assay to identify compounds that are cytotoxic to Jurkat human T lymphocyte cells.; format: functional
[20] = biological target: T5, Methionyl-tRNA synthetase, putative (Trypanosoma brucei brucei, UniProt Q38C91); format: functional, Trypanosoma brucei brucei strain 927/4 GUTat10.1
T5 sequence (Q38C91 whole entry): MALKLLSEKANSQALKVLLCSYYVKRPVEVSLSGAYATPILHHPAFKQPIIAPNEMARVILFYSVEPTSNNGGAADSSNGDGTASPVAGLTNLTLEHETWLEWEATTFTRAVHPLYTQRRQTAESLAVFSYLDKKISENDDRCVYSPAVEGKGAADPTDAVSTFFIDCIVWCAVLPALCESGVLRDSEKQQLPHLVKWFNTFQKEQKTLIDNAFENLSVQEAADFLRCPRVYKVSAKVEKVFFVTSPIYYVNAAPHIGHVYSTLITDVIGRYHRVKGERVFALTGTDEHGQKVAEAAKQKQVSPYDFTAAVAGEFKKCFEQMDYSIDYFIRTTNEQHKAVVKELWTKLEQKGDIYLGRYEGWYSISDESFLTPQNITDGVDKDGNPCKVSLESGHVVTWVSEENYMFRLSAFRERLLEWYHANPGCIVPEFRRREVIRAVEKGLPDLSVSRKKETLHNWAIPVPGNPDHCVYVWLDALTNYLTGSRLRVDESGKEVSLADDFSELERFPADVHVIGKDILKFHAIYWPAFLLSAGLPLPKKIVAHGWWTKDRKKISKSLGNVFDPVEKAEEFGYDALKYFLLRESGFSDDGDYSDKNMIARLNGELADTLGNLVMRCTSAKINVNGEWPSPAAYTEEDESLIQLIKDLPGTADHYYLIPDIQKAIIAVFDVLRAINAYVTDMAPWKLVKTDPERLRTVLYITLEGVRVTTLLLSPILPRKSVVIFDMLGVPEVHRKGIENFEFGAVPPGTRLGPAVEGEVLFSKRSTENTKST

[21] = biological target: T5, Methionyl-tRNA synthetase, putative; format: functional, Trypanosoma brucei brucei strain 927/4 GUTat10.1; remark: listed apart in the source

CN(c1ccccc1)S(=O)(=O)c1cccc(NC(=O)CSc2nncs2)c1
AC50 [1]: 1.44 µM (active)
AC50 [2]: 2.6 µM (active)
AC50 [3]: 4.3 µM (active)
AC50 [4]: 15.8 µM (active)

CCOC(=O)CNC(=O)CSc1ncnc2c1cnn2-c1ccc(OC)cc1
AC50 (HEK293): 34.4 µM (active)
AC50 [5]: 34.4 µM (active)

O=C(NNc1ccccc1Br)C(O)(c1cccc(C(F)(F)F)c1)c1cccc(C(F)(F)F)c1
EC50 (Streptokinase A): 2.13 µM (active)
IC50 [6]: > 69.5 µM (inactive)
AC50 (INS1): 6.89 µM (active)
EC50 (Streptococcus): 9.39 µM (active)
EC50 [7]: 3.48 µM (active)

CSc1ccccc1-c1nnc(-c2ccccc2)o1
EC50 [8]: > 67.5 µM (inactive)
EC50 (cells [9]): > 67.5 µM (inactive)

Cc1cc2cc(CNS(=O)(=O)c3ccc4ccccc4c3)ccc2n1C
IC50 (Fibrinogen beta chain [10]): 21 µM (inactive)
IC50 (Fibrinogen beta chain [11]): > 83.3 µM (inactive)
EC50 [12]: 6.2 µM (active)
IC50 [13]: 46.5 µM (inactive)
EC50 [14]: 14.4 µM (not active)
IC50 [15]: > 66 µM (inactive)
EC50 [16]: 6.29 µM (active)
IC50 (Nonstructural protein 1): 46.8 µM (active)

C#CCOc1ccc(C2C(C#N)=C(N)Oc3cc(O)ccc32)cc1 (stereo unspecified)
AC50 (cells [17]): 3.61 µM (active)

O=C(NCc1nc2ccccc2[nH]1)C1=C[C@@H](c2csc3ccccc23)C[C@@H](OCCCCO)O1
IC50 [18]: 64.4 µM (inactive)
IC50 [19]: 80.2 µM (inactive)
IC50 [20]: 1.91 µM (active)
IC50 [21]: 1.36 µM (active)
